Experimental data published in patent US9568467B2, “Inhibitors of micro-RNAs for use for preventing and/or attenuating skin ageing” (CHANEL PARFUMS BEAUTE, priority 2012, dated 2017).

Key:
Type in all cases: cell-based
ITGA5 mRNA = test: Relative quantification of ITGA5 mRNA level by Real Time PCR after transfection; conditions: human dermal fibroblasts, 96 hours after transfection
Procedure: (§1) Neonatal Human Primary Dermal Fibroblasts (HDFn, Cascade, Invitrogen, Carlsbad, Calif., USA) were cultured in 106 medium added with LSGS growth supplements (Cascade). Cells were passaged usually once a week, at each passage the harvested cells number and seeded cell number were recorded in order to calculate the population doublings occurring between passages and the population doubling time. At each passage different aliquots of the cells were harvested to extract in triplicate RNA and proteins and an aliquot was submitted to senescence activated β-galactosidase staining in order to assay the senescent or non-senescent state of the cells. […]
(§2) Total RNA from cells was isolated using mirVana mirRNA Isolation Kit (Ambion) by following the manufacturer's protocol for total RNA extraction. Total RNA was quantified using a NanoDrop Spectophotometer (Thermo Scientific, Delaware, USA) and RNA quality was controlled on an agarose gel. […] The expression of each gene and miR was defined from the threshold cycle (Ct), and relative expression levels were calculated by using the 2-ΔΔCt method after normalization with reference to the expression of the housekeeping gene U18.

ITGA5 = test: Western blot of ITGA5 protein level after transfection; conditions: human fibroblasts after transfection; β-Actin loading control
Procedure: (§3) Neonatal Human Primary Dermal Fibroblasts (HDFn, Cascade, Invitrogen, Carlsbad, Calif., USA) were cultured in 106 medium added with LSGS growth supplements (Cascade). Cells were passaged usually once a week, at each passage the harvested cells number and seeded cell number were recorded in order to calculate the population doublings occurring between passages and the population doubling time. At each passage different aliquots of the cells were harvested to extract in triplicate RNA and proteins and an aliquot was submitted to senescence activated β-galactosidase staining in order to assay the senescent or non-senescent state of the cells.
(§4) Human primary fibroblasts were transfected with human pre-miR 134, anti-miR-134, pre-miR-152, anti-miR-152 and scramble sequence as negative control (Ambion, Tex., USA) using the Lipofecatmine RNAimax transfection reagent (Invitrogen) according to manufacturer protocols. 24 hrs after transfection, the medium was removed and replaced with fresh medium.
Total cell extracts were resolved on a SDS polyacrylamide gel, blotted on a Hybond P PVDF membrane (G&E Healthcare, UK). […]

ITGA9 mRNA = test: Relative quantification of ITGA9 mRNA level by Real Time PCR after transfection; conditions: human dermal fibroblasts, 96 hours after transfection
Procedure: as §1, §2

[1] = system: primary human fibroblasts; test: Cell proliferation, BrdU pulse and flow cytometry after transfection; conditions: 96 hours after transfection, 3 h BrdU pulse; negative control 26%
Procedure: as §3, §4
Methods used to evaluate cell proliferation are generally based on incorporation of thymidine analogues such as 3H thymidine or bromodeoxyuridine (BrdU) during DNA synthesis. […] Cell cycle was analysed using a FACS Calibur flow cytometer (BD Biosciences, San Jose, Calif., USA). Fifteen thousand events were evaluated using the Cell Quest (BD) and Modfit LT (Verity Software; BD) programs.

miR-152 = test: Relative quantification of miR-152 level by Real Time PCR in treated or transfected fibroblasts; conditions: primary human fibroblasts, 48 hours treatment, concentration indicated in FIG. 13 (not given); control = 1.00±0.01
Procedure: as §1, §2

miR-134 = test: Relative quantification of miR-134 level by Real Time PCR in treated or transfected fibroblasts; conditions: primary human fibroblasts, 48 hours treatment, concentration indicated in FIG. 12 (not given); control = 1.00±0.01
Procedure: as §1, §2

Compound | ITGA9 mRNA level reduction (ITGA9 mRNA) [%] | percentage of BrdU positive primary human fibroblasts [1] [%] | expression of miR-152 in treated cells (relative quantification) (miR-152) | expression of miR-134 in treated cells (relative quantification) (miR-134) | other results
miR-152: human pre-miR-152 (Ambion) transfected into fibroblasts; mature miR-152 SEQ ID No. 2 UCAGUGCAUGACAGAACUUGG (delivered as commercial pre-miR precursor, further chemistry not given here; listed as Homo sapiens) | 40 | 18 |  |  | ITGA5 mRNA level reduction (ITGA5 mRNA): 30%; ITGA5 protein level (Western blot) (ITGA5): significant decrease
O=C(O[C@@H]1Cc2c(O)cc(O)cc2O[C@@H]1c1cc(O)c(O)c(O)c1)c1cc(O)c(O)c(O)c1 [Compound 4, Epigallocatechine Gallate] |  |  | 0.804±0.05 | 0.603±0.03 | 
O.Oc1cc(O)c2c(c1)O[C@H](c1ccc(O)c(O)c1)[C@@H](O)C2 [Compound 2, Catechine Hydrate] |  |  | 0.769±0.03 |  | 
C[C@@H]1O[C@@H](O[C@@H]2[C@@H](O)[C@H](OCCc3ccc(O)c(O)c3)O[C@H](CO)[C@H]2OC(=O)/C=C/c2ccc(O)c(O)c2)[C@H](O)[C@H](O)[C@H]1O [Compound 5, Verbascoside] |  |  |  | 0.734±0.05 | 
miR-134: human pre-miR 134 (Ambion) transfected into fibroblasts; mature miR-134 SEQ ID No. 1 ugugacugguugaccagagggg (UGUGACUGGUUGACCAGAGGGG; delivered as commercial pre-miR precursor, further chemistry not given here; listed as Homo sapiens) | 20 | 19 |  |  | 
